≈ marks a conversion by molar mass, not a printed value.
Experiments:
[1] = system: mixed lymphocytes reaction (MLR), T cells from spleen cells of C57BL/6 mice and BALB/c mice; experiment: Immunosuppressive activity: inhibition of mixed lymphocytes reaction (MLR); assay type: cell-based, mice (C57BL/6; conditions: Lymphocyte; mouse MLR, 50% inhibition
Excerpt: We measured inhibitory activity of mixed lymphocytes reaction (MLR) and determined the 50% inhibitory activity. Lymphocytes used are T cells from spleen cells of C57BL/6 mice and BALB/c mice.

[2] = system: Cryptococcus neoformans TIMM 0354; experiment: Antifungal activity: growth inhibition of Cryptococcus neoformans TIMM 0354 (serial two-fold dilution); assay type: cell-based; conditions: YNBG liquid medium, 2 days at 30° C.; for MIC: Cryptococcus neoformans, TIMM0354, 48 h, read-out: Antifungal activity MIC (minimum growth inhibitory concentration); for minimum growth sub-inhibitory concentration (minimum concentration causing partial growth inhibition; value in parentheses): printed in parentheses
Protocol: The test microorganism used was Cryptococcus neoformans TIMM 0354. YNBG liquid medium (Difco yeast nitrogen base 0.67%, glucose 1%) was used and the minimum growth inhibitory concentration […] was determined after culturing for 2 days at 30° C. in the presence of the serial two-fold dilution of the compound. The minimum growth sub-inhibitory concentration (μg/ml) was determined as the minimum concentration causing partial growth inhibition of the microorganism and also shown in Table 2 in parentheses.

| Compound | IC50 [1] | MIC [2] | minimum growth sub-inhibitory concentration (minimum concentration causing partial growth inhibition; value in parentheses) [2] |
| --- | --- | --- | --- |
| CCCCCCCCCCCCCC=CC(O)C(N)COC(=O)C(N)C(C)C (centres unmarked) [Compound (6)] | 1.55 µg/mL (≈ 3.89 µM) | 50 µg/mL (≈ 125 µM) | 25 µg/mL |
| CCCCCCCCCCCCCCCC(O)C(N)C(=O)NC(C)C(=O)NC(C(=O)NC(CO)CO)C(C)C (centres unmarked) [Compound (8)] | 0.44 µg/mL (≈ 0.787 µM) |  | 50 µg/mL |
| CCCCCCCCCCCCCC=CC(O)C(N)COC(=O)C(NC(=O)C(O)CO)C(C)C (centres unmarked) [Compound (2)] | 1.86 µg/mL (≈ 3.82 µM) | 25 µg/mL (≈ 51.4 µM) | 12.5 µg/mL |
| CCCCCCCCCCCCCC=CC(O)C(N)COC(=O)C(O)CO (centres unmarked) [Compound (5)] | 5 µg/mL (≈ 12.9 µM) | 50 µg/mL (≈ 129 µM) | 25 µg/mL |
| CCCCCCCCCCCCCCCC(O)C(N)COC(=O)[C@@H](NC(=O)C(O)CO)C(C)C (some centres unmarked) [Compound (1)] | 3.25 µg/mL (≈ 6.65 µM) | 50 µg/mL (≈ 102 µM) | 25 µg/mL |

— patent US6239297A, “Sphingosine derivatives and medicinal composition” (Takara Shuzo Co., Ltd., priority 1997, dated 2001)
